Experimental data taken from ChEMBL document CHEMBL1201861, “Genomics of Drug Sensitity in Cancer screening data, Wellcome Trust Sanger Institute”.
Where a SMILES comes first, the peptide text is derived from it. The star is where a group is joined. Cbz = O=C(OCc1ccccc1)*

Legend:
TALL-1 = test: cells; assay type: functional, cell-based, Homo sapiens
Description: SANGER: Inhibition of human TALL-1 cell growth in a cell viability assay.

RPMI-6666 = test: cells; assay type: functional, cell-based, Homo sapiens
Description: SANGER: Inhibition of human RPMI-6666 cell growth in a cell viability assay.

NCI-H748 = test: cells; assay type: functional, cell-based, Homo sapiens
Description: SANGER: Inhibition of human NCI-H748 cell growth in a cell viability assay.

HuTu80 = test: cells; assay type: functional, cell-based, Homo sapiens, HUTU-80
Description: SANGER: Inhibition of human HUTU-80 cell growth in a cell viability assay.

MHH-CALL-2 = test: cells; assay type: functional, cell-based, Homo sapiens
Description: SANGER: Inhibition of human MHH-CALL-2 cell growth in a cell viability assay.

DMS-153 = test: cells; assay type: functional, cell-based, Homo sapiens
Description: SANGER: Inhibition of human DMS-153 cell growth in a cell viability assay.

P31-FUJ = test: cells; assay type: functional, cell-based, Homo sapiens
Description: SANGER: Inhibition of human P31-FUJ cell growth in a cell viability assay.

MOLT-13 = test: cells; assay type: functional, cell-based; details: Homo sapiens
Description: SANGER: Inhibition of human MOLT-13 cell growth in a cell viability assay.

KARPAS-422 = test: cells; assay type: functional, cell-based, Homo sapiens
Description: SANGER: Inhibition of human KARPAS-422 cell growth in a cell viability assay.

EW-22 = test: cells; assay type: functional, cell-based; details: Homo sapiens
Description: SANGER: Inhibition of human EW-22 cell growth in a cell viability assay.

YT = test: cells; assay type: functional, cell-based, Homo sapiens
Description: SANGER: Inhibition of human YT cell growth in a cell viability assay.

TE-441-T = test: cells; assay type: functional, cell-based, Homo sapiens
Description: SANGER: Inhibition of human TE-441-T cell growth in a cell viability assay.

BC1 cell line = test: SANGER: Inhibition of human BC-1 cell growth in a cell viability assay.; assay type: functional, cell-based
MRK-nu-1 = test: cells; assay type: functional, cell-based, Homo sapiens
Description: SANGER: Inhibition of human MRK-nu-1 cell growth in a cell viability assay.

KMS-12-PE = test: cells; assay type: functional, cell-based, Homo sapiens
Description: SANGER: Inhibition of human KMS-12-PE cell growth in a cell viability assay.

BOKU = test: cells; assay type: functional, cell-based; details: Homo sapiens
Description: SANGER: Inhibition of human BOKU cell growth in a cell viability assay.

KP-N-YN = test: cells; assay type: functional, cell-based; details: Homo sapiens
Description: SANGER: Inhibition of human KP-N-YN cell growth in a cell viability assay.

VM-CUB-1 = test: cells; assay type: functional, cell-based; details: Homo sapiens
Description: SANGER: Inhibition of human VM-CUB-1 cell growth in a cell viability assay.

MC-IXC = test: cells; assay type: functional, cell-based; details: Homo sapiens
Description: SANGER: Inhibition of human MC-IXC cell growth in a cell viability assay.

NCI-H2405 = test: cells; assay type: functional, cell-based; details: Homo sapiens
Description: SANGER: Inhibition of human NCI-H2405 cell growth in a cell viability assay.

HuP-T3 = test: cells; assay type: functional, cell-based; details: Homo sapiens
Description: SANGER: Inhibition of human HuP-T3 cell growth in a cell viability assay.

SCC-4 = test: cells; assay type: functional, cell-based; details: Homo sapiens
Description: SANGER: Inhibition of human SCC-4 cell growth in a cell viability assay.

8305C = test: cells; assay type: functional, cell-based; details: Homo sapiens
Description: SANGER: Inhibition of human 8305C cell growth in a cell viability assay.

G-361 = test: cells; assay type: functional, cell-based; details: Homo sapiens
NCI-H810 = test: cells; assay type: functional, cell-based; details: Homo sapiens
Description: SANGER: Inhibition of human NCI-H810 cell growth in a cell viability assay.

PANC-03-27 = test: cells; assay type: functional, cell-based; details: Homo sapiens
Description: SANGER: Inhibition of human PANC-03-27 cell growth in a cell viability assay.

SW48 = test: cells; assay type: functional, cell-based; details: Homo sapiens
Description: SANGER: Inhibition of human SW48 cell growth in a cell viability assay.

HOP-92 = test: cells; assay type: functional, cell-based; details: Homo sapiens
Description: SANGER: Inhibition of human HOP-92 cell growth in a cell viability assay.

MKN-28 = test: cells; assay type: functional, cell-based; details: Homo sapiens
Description: SANGER: Inhibition of human MKN28 cell growth in a cell viability assay.

BEN = test: cells; assay type: functional, cell-based; details: Homo sapiens
Description: SANGER: Inhibition of human BEN cell growth in a cell viability assay.

HuO-3N1 = test: cells; assay type: functional, cell-based; details: Homo sapiens
Description: SANGER: Inhibition of human HuO-3N1 cell growth in a cell viability assay.

C32 = test: cells; assay type: functional, cell-based; details: Homo sapiens
Description: SANGER: Inhibition of human C32 cell growth in a cell viability assay.

A204 = test: cells; assay type: functional, cell-based; details: Homo sapiens
Description: SANGER: Inhibition of human A204 cell growth in a cell viability assay.

LN-405 = test: cells; assay type: functional, cell-based; details: Homo sapiens
Description: SANGER: Inhibition of human LN-405 cell growth in a cell viability assay.

Calu-3 = test: cells; assay type: functional, cell-based; details: Homo sapiens
Description: SANGER: Inhibition of human Calu-3 cell growth in a cell viability assay.

RO82-W-1 = test: cells; assay type: functional, cell-based; details: Homo sapiens
Description: SANGER: Inhibition of human RO82-W-1 cell growth in a cell viability assay.

Panc1005 = test: cells; assay type: functional, cell-based; details: Homo sapiens
Description: SANGER: Inhibition of human PANC-10-05 cell growth in a cell viability assay.

CP50-MEL-B = test: cells; assay type: functional, cell-based; details: Homo sapiens
Description: SANGER: Inhibition of human CP50-MEL-B cell growth in a cell viability assay.

T-24 = test: cells; assay type: functional, cell-based; details: Homo sapiens
Description: SANGER: Inhibition of human T-24 cell growth in a cell viability assay.

COLO-741 = test: cells; assay type: functional, cell-based; details: Homo sapiens
Description: SANGER: Inhibition of human COLO-741 cell growth in a cell viability assay.

HCC1954 = test: cells; assay type: functional, cell-based; details: Homo sapiens
Description: SANGER: Inhibition of human HCC1954 cell growth in a cell viability assay.

SBC-5 = test: cells; assay type: functional, cell-based; details: Homo sapiens
Description: SANGER: Inhibition of human SBC-5 cell growth in a cell viability assay.

SiHa = test: cells; assay type: functional, cell-based; details: Homo sapiens
Description: SANGER: Inhibition of human SiHa cell growth in a cell viability assay.

EFO-21 = test: cells; assay type: functional, cell-based; details: Homo sapiens
Description: SANGER: Inhibition of human EFO-21 cell growth in a cell viability assay.

639-V = test: cells; assay type: functional, cell-based; details: Homo sapiens
Description: SANGER: Inhibition of human 639-V cell growth in a cell viability assay.

Detroit 562 = test: cells; assay type: functional, cell-based; details: Homo sapiens
Description: SANGER: Inhibition of human Detroit562 cell growth in a cell viability assay.

MKN-7 = test: cells; assay type: functional, cell-based; details: Homo sapiens
Description: SANGER: Inhibition of human MKN7 cell growth in a cell viability assay.

TYK-nu = test: cells; assay type: functional, cell-based; details: Homo sapiens
Description: SANGER: Inhibition of human TYK-nu cell growth in a cell viability assay.

A-431 = test: cells; assay type: functional, cell-based; details: Homo sapiens
Description: SANGER: Inhibition of human A431 cell growth in a cell viability assay.

ABC-1 = test: cells; assay type: functional, cell-based; details: Homo sapiens
Description: SANGER: Inhibition of human ABC-1 cell growth in a cell viability assay.

SN12C = test: cells; assay type: functional, cell-based; details: Homo sapiens
Description: SANGER: Inhibition of human SN12C cell growth in a cell viability assay.

786-0 = test: cells; assay type: functional, cell-based; details: Homo sapiens
Description: SANGER: Inhibition of human 786-0 cell growth in a cell viability assay.

MEL-HO = test: cells; assay type: functional, cell-based; details: Homo sapiens
Description: SANGER: Inhibition of human MEL-HO cell growth in a cell viability assay.

ME-180 = test: cells; assay type: functional, cell-based; details: Homo sapiens
Description: SANGER: Inhibition of human ME-180 cell growth in a cell viability assay.

KYSE-410 = test: cells; assay type: functional, cell-based; details: Homo sapiens
Description: SANGER: Inhibition of human KYSE-410 cell growth in a cell viability assay.

MDA-MB-157 = test: cells; assay type: functional, cell-based; details: Homo sapiens
Description: SANGER: Inhibition of human MDA-MB-157 cell growth in a cell viability assay.

UO-31 = test: cells; assay type: functional, cell-based; details: Homo sapiens
Description: SANGER: Inhibition of human U031 cell growth in a cell viability assay.

## Nc1ccccc1NC(=O)c1ccc(CNC(=O)OCc2cccnc2)cc1 [ENTINOSTAT]
TALL-1; Homo sapiens, TALL-1
  IC50: > 5000 nM
RPMI-6666; Homo sapiens, RPMI-6666
  IC50: 411 nM
NCI-H748; Homo sapiens, NCI-H748
  IC50: 103 nM
HuTu80; Homo sapiens, HuTu80
  IC50: 1800 nM
MHH-CALL-2; Homo sapiens, MHH-CALL-2
  IC50: 1250 nM
DMS-153; Homo sapiens, DMS-153
  IC50: 975 nM
P31-FUJ; Homo sapiens, P31-FUJ
  IC50: > 5000 nM
MOLT-13
  IC50: 338 nM
KARPAS-422; Homo sapiens, KARPAS-422
  IC50: 1450 nM
EW-22
  IC50: > 5000 nM
YT; Homo sapiens, YT
  IC50: > 5000 nM
TE-441-T; Homo sapiens, TE-441-T
  IC50: > 5000 nM
BC1 cell line; Homo sapiens, BC1
  IC50: 434 nM
MRK-nu-1; Homo sapiens, MRK-nu-1
  IC50: 432 nM
KMS-12-PE; Homo sapiens, KMS-12-PE
  IC50: > 5000 nM

## CC(C)C[C@@H](C=O)NC(=O)[C@H](CC(C)C)NC(=O)[C@H](CC(C)C)NC(=O)OCc1ccccc1 [MG-132] (Cbz-Leu-Leu-Leu-aldehyde)
TALL-1; tall-1
  IC50: > 1000 nM
BOKU
  IC50: > 1000 nM
RPMI-6666; rpmi-6666
  IC50: > 1000 nM
NCI-H748; Homo sapiens, NCI-H748
  IC50: > 1000 nM
NCI-H748; nci-h748
  IC50: > 1000 nM
HuTu80; Homo sapiens, HuTu80
  IC50: > 1000 nM
HuTu80; hutu-80
  IC50: > 1000 nM
MHH-CALL-2; mhh-call-2
  IC50: > 1000 nM
DMS-153; Homo sapiens, DMS-153
  IC50: > 1000 nM
DMS-153; dms-153
  IC50: > 1000 nM
P31-FUJ; p31-fuj
  IC50: > 1000 nM
KARPAS-422; karpas-422
  IC50: > 1000 nM
EW-22
  IC50: > 1000 nM
YT; yt
  IC50: > 1000 nM
TE-441-T; te-441-t
  IC50: > 1000 nM
BC1 cell line; Homo sapiens, BC1
  IC50: > 1000 nM
BC1 cell line; bc1
  IC50: > 1000 nM
KP-N-YN
  IC50: > 1000 nM
MRK-nu-1; mrk-nu-1
  IC50: > 1000 nM
KMS-12-PE; kms-12-pe
  IC50: > 1000 nM

## CO[C@@H]1[C@H](N(C)C(=O)c2ccccc2)C[C@H]2O[C@]1(C)n1c3ccccc3c3c4c(c5c6ccccc6n2c5c31)C(=O)NC4 [MIDOSTAURIN]
VM-CUB-1
  IC50: > 512 nM
MC-IXC
  IC50: 266 nM
NCI-H2405
  IC50: 351 nM
HuP-T3
  IC50: > 512 nM
SCC-4
  IC50: 240 nM
8305C
  IC50: > 512 nM
G-361
  IC50: 209 nM
NCI-H810
  IC50: 210 nM
PANC-03-27
  IC50: 160 nM
SW48
  IC50: 267 nM
HOP-92
  IC50: > 512 nM
BC1 cell line; Homo sapiens, BC1
  IC50: > 512 nM
MKN-28
  IC50: > 512 nM
BEN
  IC50: > 512 nM

## NC1(c2ccc(-c3nc4ccn5c(=O)[nH]nc5c4cc3-c3ccccc3)cc2)CCC1 [MK-2206]
HuO-3N1
  IC50: > 4000 nM
VM-CUB-1
  IC50: 2390 nM
C32
  IC50: > 4000 nM
MC-IXC
  IC50: > 4000 nM
A204
  IC50: 2840 nM
LN-405
  IC50: > 4000 nM
Calu-3
  IC50: > 4000 nM
RO82-W-1
  IC50: > 4000 nM
Panc1005
  IC50: > 4000 nM
NCI-H2405
  IC50: > 4000 nM
CP50-MEL-B
  IC50: > 4000 nM
HuP-T3
  IC50: > 4000 nM
T-24
  IC50: 2480 nM
COLO-741
  IC50: > 4000 nM
HCC1954
  IC50: > 4000 nM
SBC-5
  IC50: > 4000 nM
SiHa
  IC50: > 4000 nM
EFO-21
  IC50: > 4000 nM
639-V
  IC50: > 4000 nM
SCC-4
  IC50: > 4000 nM
8305C
  IC50: > 4000 nM
Detroit 562
  IC50: > 4000 nM
MKN-7
  IC50: > 4000 nM
TYK-nu
  IC50: > 4000 nM
A-431
  IC50: > 4000 nM
MOLT-13
  IC50: > 4000 nM
ABC-1
  IC50: 2330 nM
SN12C
  IC50: > 4000 nM
786-0
  IC50: > 4000 nM
NCI-H810
  IC50: > 4000 nM
PANC-03-27
  IC50: > 4000 nM
SW48
  IC50: > 4000 nM
EW-22
  IC50: > 4000 nM
HOP-92
  IC50: 872 nM
MEL-HO
  IC50: > 4000 nM
ME-180
  IC50: 1570 nM
KP-N-YN
  IC50: > 4000 nM
KYSE-410
  IC50: > 4000 nM
MDA-MB-157
  IC50: > 4000 nM
BEN
  IC50: > 4000 nM

## CN(C)CCOc1ccc(-c2nc(-c3ccncc3)c(-c3ccc4c(c3)CC/C4=N\O)[nH]2)cc1 [SB590885]
HuO-3N1
  IC50: > 5000 nM
VM-CUB-1
  IC50: > 5000 nM
C32
  IC50: 99.6 nM
MC-IXC
  IC50: > 5000 nM
A204
  IC50: > 5000 nM
LN-405
  IC50: > 5000 nM
Calu-3
  IC50: > 5000 nM
RO82-W-1
  IC50: > 5000 nM
Panc1005
  IC50: > 5000 nM
NCI-H2405
  IC50: > 5000 nM
CP50-MEL-B
  IC50: 1730 nM
HuP-T3
  IC50: > 5000 nM
T-24
  IC50: > 5000 nM
COLO-741
  IC50: > 5000 nM
HCC1954
  IC50: > 5000 nM
SBC-5
  IC50: > 5000 nM
SiHa
  IC50: > 5000 nM
EFO-21
  IC50: > 5000 nM
639-V
  IC50: > 5000 nM
UO-31
  IC50: > 5000 nM
SCC-4
  IC50: > 5000 nM
8305C
  IC50: > 5000 nM
Detroit 562
  IC50: > 5000 nM
MKN-7
  IC50: > 5000 nM
TYK-nu
  IC50: 1800 nM
A-431
  IC50: > 5000 nM
MOLT-13
  IC50: > 5000 nM
ABC-1
  IC50: > 5000 nM
SN12C
  IC50: > 5000 nM
786-0
  IC50: > 5000 nM
NCI-H810
  IC50: > 5000 nM
PANC-03-27
  IC50: > 5000 nM
SW48
  IC50: > 5000 nM
EW-22
  IC50: > 5000 nM
HOP-92
  IC50: 1110 nM
MEL-HO
  IC50: 69.3 nM
ME-180
  IC50: > 5000 nM
KP-N-YN
  IC50: > 5000 nM
KYSE-410
  IC50: > 5000 nM
MKN-28
  IC50: > 5000 nM
MDA-MB-157
  IC50: > 5000 nM
BEN
  IC50: > 5000 nM
